Measured values from patent US20210355104A1, “ADENOSINE RECEPTOR BINDING COMPOUNDS” (Nikang Therapeuticsm Inc., priority 2018, published 2021).

molecular target: Adenosine A2A receptor (Homo sapiens, UniProt P29274); test: cAMP assay in 293A cells stably expressing the adenosine A2A receptor (CGS21680 stimulation, HTRF); type: cell-based; set-up: expressed in transfected cells; host or cells: 293A cells (Invitrogen, Cat# R705-07) infected with A2A-expressing lentivirus (custom packaged by Biosettia), puromycin selected; conditions: 293A-A2AR cells, 0.1% BSA, 1 uM CGS; read-out: cAMP (nM) 0.1% BSA, 1 uM CGS
Sequence (P29274 whole entry): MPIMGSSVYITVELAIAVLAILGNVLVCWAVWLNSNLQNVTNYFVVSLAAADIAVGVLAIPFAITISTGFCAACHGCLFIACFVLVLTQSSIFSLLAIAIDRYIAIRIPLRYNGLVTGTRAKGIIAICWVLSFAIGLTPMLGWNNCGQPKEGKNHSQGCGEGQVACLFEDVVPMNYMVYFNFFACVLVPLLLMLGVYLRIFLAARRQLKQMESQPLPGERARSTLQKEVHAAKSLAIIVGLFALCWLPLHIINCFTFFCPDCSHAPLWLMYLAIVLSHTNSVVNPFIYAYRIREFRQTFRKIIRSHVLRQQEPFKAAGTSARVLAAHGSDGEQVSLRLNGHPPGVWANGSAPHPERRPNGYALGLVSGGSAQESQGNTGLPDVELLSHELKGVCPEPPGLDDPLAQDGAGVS

IC50 [nM] | SMILES
4510 | Cc1cc(-c2c(OCc3cccc(N(C)CCC(=O)O)n3)nc(N)nc2-c2ccc(F)cc2)cc(C(F)F)n1 [Example 328, 3-((6-(((2-amino-5-(2-(difluoromethyl)-6-methylpyridin-4-yl)-6-(4-fluorophenyl)pyrimidin-4-yl)oxy)methyl)pyridin-2-yl)(methyl)amino) propanoic acid]
2550 | CCn1[nH]c(=O)cc1COc1nc(N)nc(-c2ccc(F)cc2)c1-c1cc(C)nc(C(F)F)c1 [Example 330, 5-(((2-amino-5-(2-(difluoromethyl)-6-methylpyridin-4-yl)-6-(4-fluorophenyl)pyrimidin-4-yl)oxy)methyl)-1-ethyl-1,2-dihydro-3H-pyrazol-3-one]
648 | Cc1cc(-c2c(OCc3cc4ccccc4o3)nc(N)nc2-c2ccc(F)cc2)cc(C(F)F)n1 [Example 331, 4-(benzofuran-2-ylmethoxy)-5-(2-(difluoromethyl)-6-methylpyridin-4-yl)-6-(4-fluorophenyl)pyrimidin-2-amine]
> 5000 | CCn1c(COc2nc(N)nc(-c3ccc(F)cc3)c2-c2cc(C)nc(C(F)F)c2)nc2ccc(C(=O)O)cc21 [Example 332, 2-(((2-amino-5-(2-(difluoromethyl)-6-methylpyridin-4-yl)-6-(4-fluorophenyl)pyrimidin-4-yl)oxy)methyl)-1-ethyl-1H-benzo[d]imidazole-6-carboxylic acid]
> 5000 | CCn1c(COc2nc(N)nc(-c3ccc(F)cc3)c2-c2cc(C)nc(C(F)F)c2)nc2cc(C(=O)O)ccc21 [Example 333, 2-(((2-amino-5-(2-(difluoromethyl)-6-methylpyridin-4-yl)-6-(4-fluorophenyl)pyrimidin-4-yl)oxy)methyl)-1-ethyl-1H-benzo[d]imidazole-5-carboxylic acid]
3170 | Cc1cc(-c2c(OCCn3ccc(C(=O)O)cc3=O)nc(N)nc2-c2ccc(F)cc2)cc(C(F)F)n1 [Example 334, 1-(2-((2-amino-5-(2-(difluoromethyl)-6-methylpyridin-4-yl)-6-(4-fluorophenyl)pyrimidin-4-yl)oxy)ethyl)-2-oxo-1,2-dihydropyridine-4-carboxylic acid]
> 25000 | Cc1cc(-c2c(OCCn3cccc(C(=O)O)c3=O)nc(N)nc2-c2ccc(F)cc2)cc(C(F)F)n1 [Example 335, 1-(2-((2-amino-5-(2-(difluoromethyl)-6-methylpyridin-4-yl)-6-(4-fluorophenyl)pyrimidin-4-yl)oxy)ethyl)-2-oxo-1,2-dihydropyridine-3-carboxylic acid]
> 25000 | Cc1cc(-c2c(OCCn3cc(C(=O)O)ccc3=O)nc(N)nc2-c2ccc(F)cc2)cc(C(F)F)n1 [Example 336, 1-(2-((2-amino-5-(2-(difluoromethyl)-6-methylpyridin-4-yl)-6-(4-fluorophenyl)pyrimidin-4-yl)oxy)ethyl)-6-oxo-1,6-dihydropyridine-3-carboxylic acid]
> 25000 | Cc1cc(-c2c(OCCOc3ncccc3C(=O)O)nc(N)nc2-c2ccc(F)cc2)cc(C(F)F)n1 [Example 337, 2-(2-((2-amino-5-(2-(difluoromethyl)-6-methylpyridin-4-yl)-6-(4-fluorophenyl)pyrimidin-4-yl)oxy)ethoxy)nicotinic acid]
2890 | Cc1cc(-c2c(OCc3cccc(OCCC(C)(C)C(=O)O)n3)nc(N)nc2-c2ccc(F)cc2)cc(C(F)F)n1 [Example 338, 4-((6-(((2-amino-5-(2-(difluoromethyl)-6-methylpyridin-4-yl)-6-(4-fluorophenyl)pyrimidin-4-yl)oxy)methyl)pyridin-2-yl)oxy)-2,2-dimethylbutanoic acid]
4080 | CCn1c(COc2nc(N)nc(-c3ccc(F)cc3)c2-c2cc(C)nc(C(F)F)c2)n[nH]c1=O [Example 340, 5-(((2-amino-5-(2-(difluoromethyl)-6-methylpyridin-4-yl)-6-(4-fluorophenyl)pyrimidin-4-yl)oxy)methyl)-4-ethyl-2,4-dihydro-3H-1,2,4-triazol-3-one]
1400 | Cc1cc(-c2c(OCc3nc4ccccn4n3)nc(N)nc2-c2ccc(F)cc2)cc(C(F)F)n1 [Example 341, 4-([1,2,4]triazolo[1,5-a]pyridin-2-ylmethoxy)-5-(2-(difluoromethyl)-6-methylpyridin-4-yl)-6-(4-fluorophenyl)pyrimidin-2-amine]
419 | Cc1cc(-c2c(OCc3nc4ccccc4o3)nc(N)nc2-c2ccc(F)cc2)cc(C(F)F)n1 [Example 342, 4-(benzo[d]oxazol-2-ylmethoxy)-5-(2-(difluoromethyl)-6-methylpyridin-4-yl)-6-(4-fluorophenyl)pyrimidin-2-amine]
1340 | Cc1cc(-c2c(OCc3cc4ccccc4s3)nc(N)nc2-c2ccc(F)cc2)cc(C(F)F)n1 [Example 343, 4-(benzo[b]thiophen-2-ylmethoxy)-5-(2-(difluoromethyl)-6-methylpyridin-4-yl)-6-(4-fluorophenyl)pyrimidin-2-amine]
> 25000 | CCn1c(COc2nc(N)nc(-c3ccc(F)cc3)c2-c2cc(C)nc(C(F)F)c2)nc2cccc(C(=O)O)c21 [Example 344, 2-(((2-amino-5-(2-(difluoromethyl)-6-methylpyridin-4-yl)-6-(4-fluorophenyl)pyrimidin-4-yl)oxy)methyl)-1-ethyl-1H-benzo[d]imidazole-7-carboxylic acid]
10300 | CCn1c(COc2nc(N)nc(-c3ccc(F)cc3)c2-c2cc(C)nc(C(F)F)c2)nc2c(C(=O)O)cccc21 [Example 345, 2-(((2-amino-5-(2-(difluoromethyl)-6-methylpyridin-4-yl)-6-(4-fluorophenyl)pyrimidin-4-yl)oxy)methyl)-1-ethyl-1H-benzo[d]imidazole-4-carboxylic acid]
3990 | Cc1cc(-c2c(OCc3cc4c(s3)CCCC4)nc(N)nc2-c2ccc(F)cc2)cc(C(F)F)n1 [Example 346, 5-(2-(difluoromethyl)-6-methylpyridin-4-yl)-4-(4-fluorophenyl)-6-((4,5,6,7-tetrahydrobenzo[b]thiophen-2-yl)methoxy)pyrimidin-2-amine]
634 | Cc1cc(-c2c(OCc3nc4ccccc4s3)nc(N)nc2-c2ccc(F)cc2)cc(C(F)F)n1 [Example 347, 4-(benzo[d]thiazol-2-ylmethoxy)-5-(2-(difluoromethyl)-6-methylpyridin-4-yl)-6-(4-fluorophenyl)pyrimidin-2-amine]
2620 | Cc1cc(-c2c(OCCc3ccncc3)nc(N)nc2-c2ccc(F)cc2)cc(C(F)F)n1 [Example 348, 5-(2-(difluoromethyl)-6-methylpyridin-4-yl)-4-(4-fluorophenyl)-6-(2-(pyridin-4-yl)ethoxy)pyrimidin-2-amine]
13100 | Cc1cc(-c2c(NCc3nc4ccccc4n3C)nc(N)nc2-c2ccc(F)cc2)cc(C(F)F)n1 [Example 351, 5-(2-(difluoromethyl)-6-methylpyridin-4-yl)-6-(4-fluorophenyl)-N^4-((1-methyl-1H-benzo[d]imidazol-2-yl)methyl)pyrimidine-2,4-diamine]
1790 | Cc1cc(-c2c(OCc3nc4n(n3)CCCC4)nc(N)nc2-c2ccc(F)cc2)cc(C(F)F)n1 [Example 352, 5-(2-(difluoromethyl)-6-methylpyridin-4-yl)-4-(4-fluorophenyl)-6-((5,6,7,8-tetrahydro-[1,2,4]triazolo[1,5-a]pyridin-2-yl)methoxy)pyrimidin-2-amine]
